Laboratory results from ChEMBL document CHEMBL1909046, “DrugMatrix in vitro pharmacology data”.
pIC50, pKi: −log10 of the molar value.

How the values were obtained:
[1] = biological target: Beta-1 adrenergic receptor (Homo sapiens, UniProt P08588); test: DRUGMATRIX: Adrenergic beta1 radioligand binding (ligand: [125I] Cyanopindolol); assay type: cell membranes, CHO-K1, Membrane; conditions: cho-k1; Not Active = under 50% inhibition at 10 µM
[2] = DRUGMATRIX: ATPase, Na+/K+ enzyme inhibition (substrate: ATP); assay type: tissue-based, Sus scrofa, Heart; conditions: Not Active = under 50% inhibition at 10 µM
[3] = DRUGMATRIX: beta-Lactamase enzyme inhibition (substrate: Nitrocefin); parameters: species or system Bacillus cereus; conditions: Not Active = under 50% inhibition at 10 µM
[4] = DRUGMATRIX: Serotonin (5-Hydroxytryptamine) 5-HT3 radioligand binding (ligand: [3H] GR-65630); assay type: cell membranes, Membrane; conditions: hek293; Not Active = under 50% inhibition at 10 µM
[5] = DRUGMATRIX: Tumor Necrosis Factor (TNF), Non-Selective radioligand binding (ligand: [125I] TNF-alpha); assay type: cell membranes, Membrane; conditions: u-937; Not Active = under 50% inhibition at 10 µM
[6] = biological target: Sodium-dependent dopamine transporter (Homo sapiens, UniProt Q01959); test: DRUGMATRIX: Dopamine Transporter radioligand binding (ligand: [125I] RTI-55); assay type: cell membranes, CHO-K1, Membrane; conditions: cho-k1; Not Active = under 50% inhibition at 10 µM
[7] = DRUGMATRIX: Leukotriene, BLT (LTB4) radioligand binding (ligand: [3H]LTB4); assay type: cell membranes, Membrane; conditions: u-937, Not Active = under 50% inhibition at 10 µM
[8] = DRUGMATRIX: Phosphodiesterase PDE3 enzyme inhibition (substrate: [3H]cAMP + cAMP); assay type: tissue-based, Homo sapiens; conditions: platelet; Not Active = under 50% inhibition at 10 µM
[9] = DRUGMATRIX: Potassium Channel [KATP] radioligand binding (ligand: [3H] Glyburide); assay type: cell membranes, Membrane; conditions: hit-t15; Not Active = under 50% inhibition at 10 µM

Chain of Sodium-dependent dopamine transporter (Q01959 whole entry): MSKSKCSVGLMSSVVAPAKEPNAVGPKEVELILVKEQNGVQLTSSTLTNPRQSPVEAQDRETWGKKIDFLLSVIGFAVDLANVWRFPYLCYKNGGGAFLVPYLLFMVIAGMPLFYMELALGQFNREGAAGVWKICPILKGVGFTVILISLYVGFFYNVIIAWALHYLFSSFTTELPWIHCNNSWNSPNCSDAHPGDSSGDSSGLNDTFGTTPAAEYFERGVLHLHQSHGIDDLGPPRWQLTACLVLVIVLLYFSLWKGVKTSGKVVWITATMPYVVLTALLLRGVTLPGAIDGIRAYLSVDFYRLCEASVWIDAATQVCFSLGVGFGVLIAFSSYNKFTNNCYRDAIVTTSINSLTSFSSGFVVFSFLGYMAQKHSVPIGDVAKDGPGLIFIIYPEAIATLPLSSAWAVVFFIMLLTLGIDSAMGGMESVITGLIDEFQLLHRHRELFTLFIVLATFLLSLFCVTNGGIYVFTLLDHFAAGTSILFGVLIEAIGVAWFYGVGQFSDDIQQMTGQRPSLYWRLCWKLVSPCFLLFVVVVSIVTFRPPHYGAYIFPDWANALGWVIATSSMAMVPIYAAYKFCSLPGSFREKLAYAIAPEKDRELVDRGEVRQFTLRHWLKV
Chain of Beta-1 adrenergic receptor (P08588 whole entry): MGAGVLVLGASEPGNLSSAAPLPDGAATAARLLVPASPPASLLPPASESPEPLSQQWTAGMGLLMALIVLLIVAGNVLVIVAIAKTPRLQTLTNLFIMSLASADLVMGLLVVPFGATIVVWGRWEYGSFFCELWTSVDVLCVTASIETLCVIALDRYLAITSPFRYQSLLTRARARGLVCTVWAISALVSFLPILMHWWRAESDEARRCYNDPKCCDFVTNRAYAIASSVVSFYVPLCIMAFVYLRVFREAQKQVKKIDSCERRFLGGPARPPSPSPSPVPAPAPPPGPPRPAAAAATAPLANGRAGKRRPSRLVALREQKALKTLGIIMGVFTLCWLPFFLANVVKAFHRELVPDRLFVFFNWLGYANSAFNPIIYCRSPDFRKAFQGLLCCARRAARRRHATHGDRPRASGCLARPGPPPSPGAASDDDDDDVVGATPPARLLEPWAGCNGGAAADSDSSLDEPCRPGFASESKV

Compound | IC50 [1] | IC50 [2] | Ki [2] | IC50 [3] | Ki [3] | IC50 [4] | Ki [4] | IC50 [5] | Ki [5] | IC50 [6] | IC50 [7] | Ki [7] | IC50 [8] | Ki [8] | IC50 [9] | Ki [9] | pIC50 ([7]; read-out: IC50) | pKi ([7]; read-out: Ki) | Ki [1] | Ki [6]
CCCCC(=O)N(Cc1ccc(-c2ccccc2-c2nnn[nH]2)cc1)[C@H](C(=O)O)C(C)C | Not Active | Not Active | Not Active | Not Active | Not Active | Not Active | Not Active | Not Active | Not Active | Not Active | Not Active | Not Active | Not Active | Not Active | Not Active | Not Active |  |  |  | 
O=C(O)COc1ccc(C(=O)c2cccs2)c(Cl)c1Cl | Not Active | Not Active | Not Active | Not Active | Not Active | Not Active | Not Active | Not Active | Not Active | Not Active | Not Active | Not Active | Not Active | Not Active | Not Active | Not Active |  |  |  | 
C[C@@](Cc1ccc(O)c(O)c1)(NN)C(=O)O.O [CARBIDOPA] | Not Active | Not Active | Not Active | Not Active | Not Active | Not Active | Not Active | Not Active | Not Active | Not Active | Not Active | Not Active | Not Active | Not Active | Not Active | Not Active |  |  |  | 
CN1CCN(C2=Nc3cc(Cl)ccc3Nc3ccccc32)CC1 [CLOZAPINE] | Not Active |  |  |  |  |  |  |  |  |  |  |  |  |  |  |  |  |  |  | 
O=C(O)CCCCC1CCSS1 (stereo not drawn) [LIPOIC ACID, ALPHA] | Not Active | Not Active | Not Active | Not Active | Not Active | Not Active | Not Active | Not Active | Not Active | Not Active | Not Active | Not Active | Not Active | Not Active | Not Active | Not Active |  |  |  | 
Oc1ccc2c3c1O[C@H]1[C@@H](O)CC[C@@]4(O)[C@@H](C2)N(CC2CCC2)CC[C@]314 [NALBUPHINE] | Not Active |  |  |  |  |  |  |  |  | Not Active |  |  |  |  |  |  |  |  |  | 
C[C@]12C=CC(=O)C=C1CC[C@@H]1[C@@H]2C(=O)C[C@@]2(C)[C@H]1CC[C@]2(O)C(=O)CO [PREDNISONE] | Not Active | Not Active | Not Active | Not Active | Not Active | Not Active | Not Active | Not Active | Not Active | Not Active | Not Active | Not Active | Not Active | Not Active | Not Active | Not Active |  |  |  | 
OCCOCCN1CCN(C2=Nc3ccccc3Sc3ccccc32)CC1 [QUETIAPINE] | Not Active |  |  |  |  |  |  |  |  | Not Active |  |  |  |  |  |  |  |  |  | 
COC(=O)[C@H]1[C@H]2C[C@@H]3c4[nH]c5cc(OC)ccc5c4CCN3C[C@H]2C[C@@H](OC(=O)c2cc(OC)c(OC)c(OC)c2)[C@@H]1OC [RESERPINE] | Not Active | Not Active | Not Active | Not Active | Not Active | Not Active | Not Active | Not Active | Not Active | Not Active | Not Active | Not Active | Not Active | Not Active | Not Active | Not Active |  |  |  | 
O=C(O)c1ccccc1O [SALICYLIC ACID] |  | Not Active | Not Active | Not Active | Not Active | Not Active | Not Active | Not Active | Not Active | Not Active | Not Active | Not Active | Not Active | Not Active | Not Active | Not Active |  |  |  | 
C[S+]([O-])c1ccc(-c2nc(-c3ccncc3)c(-c3ccc(F)cc3)[nH]2)cc1 (stereo unspecified) [SB-203580] | Not Active |  |  |  |  |  |  |  |  | Not Active |  |  |  |  |  |  |  |  |  | 
CC1CCC(NC(=O)N(CCCl)N=O)CC1 (stereo unspecified) [SEMUSTINE] | Not Active | Not Active | Not Active | Not Active | Not Active | Not Active | Not Active | Not Active | Not Active | Not Active | Not Active | Not Active | Not Active | Not Active | Not Active | Not Active |  |  |  | 
O=C1C[C@@H]2OCC=C3CN4CC[C@]56c7ccccc7N1[C@H]5[C@H]2[C@H]3C[C@H]46 [STRYCHNINE] |  | Not Active | Not Active | Not Active | Not Active | Not Active | Not Active | Not Active | Not Active | Not Active | Not Active | Not Active | Not Active | Not Active | Not Active | Not Active |  |  |  | 
C[N+](C)(C)CCOC(=O)CCC(=O)OCC[N+](C)(C)C.[Cl-].[Cl-] [SUCCINYLCHOLINE CHLORIDE] | Not Active | Not Active | Not Active | Not Active | Not Active | Not Active | Not Active | Not Active | Not Active | Not Active | Not Active | Not Active | Not Active | Not Active | Not Active | Not Active |  |  |  | 
Nc1ccc(S(=O)(=O)NC(=O)c2ccccc2)cc1 [SULFABENZAMIDE] | Not Active | Not Active | Not Active | Not Active | Not Active | Not Active | Not Active | Not Active | Not Active | Not Active | Not Active | Not Active | Not Active | Not Active | Not Active | Not Active |  |  |  | 
CCCCCCCCNC(C)C(O)c1ccc(SC(C)C)cc1 (stereo unspecified) [SULOCTIDIL] |  | Not Active | Not Active | Not Active | Not Active | Not Active | Not Active |  |  |  |  |  | Not Active | Not Active | Not Active | Not Active | 5.84 | 6.44 |  | 
O=c1[nH]c(=O)n(C2CCCO2)cc1F (stereo unspecified) [TEGAFUR] | Not Active | Not Active | Not Active | Not Active | Not Active | Not Active | Not Active | Not Active | Not Active | Not Active | Not Active | Not Active | Not Active | Not Active | Not Active | Not Active |  |  |  | 
CC(=N)S [THIOACETAMIDE] | Not Active | Not Active | Not Active | Not Active | Not Active | Not Active | Not Active | Not Active | Not Active | Not Active | Not Active | Not Active | Not Active | Not Active | Not Active | Not Active |  |  |  | 
Cc1ccc(C(=O)c2ccc(CC(=O)O)n2C)cc1 [TOLMETIN] | Not Active | Not Active | Not Active | Not Active | Not Active | Not Active | Not Active | Not Active | Not Active | Not Active | Not Active | Not Active | Not Active | Not Active | Not Active | Not Active |  |  |  | 
CC(=O)OCC(COC(C)=O)OC(C)=O [TRIACETIN] | Not Active | Not Active | Not Active | Not Active | Not Active | Not Active | Not Active | Not Active | Not Active | Not Active | Not Active | Not Active | Not Active | Not Active | Not Active | Not Active |  |  |  | 
CN1CCN(CCCN2c3ccccc3Sc3ccc(C(F)(F)F)cc32)CC1 [TRIFLUOPERAZINE] | Not Active | Not Active | Not Active | Not Active | Not Active | Not Active | Not Active | Not Active | Not Active | Not Active | Not Active | Not Active | Not Active | Not Active | Not Active | Not Active |  |  |  | 
TRANSPLATIN | Not Active | Not Active | Not Active | Not Active | Not Active | Not Active | Not Active | Not Active | Not Active | Not Active | Not Active | Not Active | Not Active | Not Active | Not Active | Not Active |  |  | Not Active | Not Active
